# Test results as given in the Kinase Knowledgebase extract (Sharma et al. 2016).
# Biological target: CDK2 (human) (UniProt P24941)
# Assay: Enzyme Assay
row,Ki,SMILES
1,< 1000 nM,O=c1[nH][nH]c2ccc(-c3nc(Nc4n[nH]c5ccccc45)c4ccccc4n3)c([N+](=O)[O-])c12
2,< 1000 nM,Cn1cnc(NC2COCC(Nc3ccc4c(=O)[nH][nH]c4c3)C2)c1 (stereo not drawn)
3,< 1000 nM,Cc1cc(Nc2cc(N3CCN(C)CC3)nc(Oc3ccc4c(=O)[nH][nH]c4c3)n2)n[nH]1
4,< 1000 nM,Cc1cc(Nc2cc(-c3ccc(OCCCN(C)C)cc3)nc(Sc3ccc4c(=O)[nH][nH]c4c3)n2)n[nH]1
5,< 1000 nM,Cn1cnc(NCCC(=O)Oc2ccc3c(=O)[nH][nH]c3c2)c1
6,< 1000 nM,Nc1cncc(-c2nc(Nc3n[nH]c4ccccc34)nc(-c3cc4c(=O)[nH][nH]c4cc3C(F)(F)F)n2)c1
7,< 1000 nM,O=c1[nH][nH]c2cc(Cl)c(-c3cc(N4CCCCC4)nc(Nc4n[nH]c5ccccc45)n3)cc12
8,< 1000 nM,Cc1cc(Nc2nc(-c3cc4c(=O)[nH][nH]c4cc3-c3ccccc3)nc3ccccc23)n[nH]1
9,< 1000 nM,Cn1cnc(NC2CCCC2COc2ccc3c(=O)[nH][nH]c3c2)c1 (stereo not drawn)
10,< 1000 nM,O=c1[nH][nH]c2ccc(-c3nc4c(c(Nc5n[nH]c(C6CC6)n5)n3)CCCCC4)c(C(F)(F)F)c12
11,< 1000 nM,Cc1cc(Nc2nc(Nc3ccc4c(=O)[nH][nH]c4c3)nc3cccc(C)c23)n[nH]1
12,< 1000 nM,COc1cccc2c(Nc3cc(C4CC4)[nH]n3)nc(Sc3ccc4c(=O)[nH][nH]c4c3)nc12
13,< 1000 nM,Cc1cc(Nc2nc(Sc3ccc4c(=O)[nH][nH]c4c3)nc3c(O)cccc23)n[nH]1
14,< 1000 nM,Cn1cnc(NC2CCCC(Nc3ccc4c(=O)[nH][nH]c4c3)C2)c1 (stereo not drawn)
15,< 1000 nM,O=c1[nH][nH]c2cc(OC(CCNc3cc(C4CC4)[nH]n3)Cc3ccccc3)ccc12 (stereo not drawn)
16,< 1000 nM,O=c1[nH][nH]c2cc(Oc3nc(Nc4cc(C5CC5)[nH]n4)cc(-c4ccccc4)n3)ccc12
17,< 1000 nM,COC(=O)c1cc(Nc2cc(C)[nH]n2)nc(Sc2ccc3c(=O)[nH][nH]c3c2)n1
18,< 1000 nM,COCC(C)(C)c1cc(Nc2cc(C)[nH]n2)nc(Sc2ccc3c(=O)[nH][nH]c3c2)n1
19,< 1000 nM,O=c1[nH][nH]c2ccc(-c3nc(Nc4cc(-c5ccccc5)[nH]n4)c4ccccc4n3)c(C(F)(F)F)c12
20,< 1000 nM,Cc1cnc(NCCONc2ccc3c(=O)[nH][nH]c3c2)s1
21,< 1000 nM,CCc1cc(Nc2cc(C)[nH]n2)nc(Nc2ccc3c(=O)[nH][nH]c3c2)n1
22,< 1000 nM,O=C(CCCc1ccc2c(=O)[nH][nH]c2c1)Nc1cc(C2CC2)[nH]n1
23,< 1000 nM,CCCCc1cc(Nc2nncc(-c3ccc4[nH][nH]c(=O)c4c3)n2)n[nH]1

row,Ki,SMILES
1,< 1000 nM,CN(C)CCOCc1cc(Nc2n[nH]c3ccccc23)nc(Sc2ccc3c(=O)[nH][nH]c3c2)n1
2,< 1000 nM,Cc1cnc(NCCC(Cc2ccccc2)Oc2ccc3c(=O)[nH][nH]c3c2)s1 (stereo not drawn)
3,< 1000 nM,Cn1cnc(NCCCNc2ccc3c(=O)[nH][nH]c3c2)c1
4,< 1000 nM,Cc1cc(Nc2nc(CSc3ccc4[nH][nH]c(=O)c4c3)nc3ccccc23)n[nH]1
5,< 1000 nM,Cc1cc(Nc2nc(Nc3ccc4c(=O)[nH][nH]c4c3)nc3c2CCCCC3)n[nH]1
6,< 1000 nM,O=c1[nH][nH]c2cc(C(F)(F)F)c(-c3nc(Nc4n[nH]c5ccccc45)nc(N4CCSCC4)n3)cc12
7,< 1000 nM,Cc1cc(Nc2nc(Sc3ccc4c(=O)[nH][nH]c4c3)nc3ccccc23)n[nH]1
8,< 1000 nM,Cc1c(Nc2n[nH]c3ccccc23)nc(-c2cc3c(=O)[nH][nH]c3cc2Cl)nc1N1CCOCC1
9,< 1000 nM,Cc1cnc(NC(=O)CCSc2ccc3c(=O)[nH][nH]c3c2)s1
10,< 1000 nM,CC(C)(c1ccc2c(=O)[nH][nH]c2c1)C1CCC(Nc2ccccn2)C1 (stereo not drawn)
11,< 1000 nM,O=c1[nH][nH]c2cc(CCCONc3ccccn3)ccc12
12,< 1000 nM,Cc1cnc(NC2CCCC2COc2ccc3c(=O)[nH][nH]c3c2)s1 (stereo not drawn)
13,< 1000 nM,O=c1[nH][nH]c2cc(C(F)(F)F)c(-c3cc4cccnc4c(Nc4nc[nH]n4)n3)cc12
14,< 1000 nM,Cc1cc(Nc2cc(N3CCN(C)CC3)nc(Sc3ccc4c(=O)[nH][nH]c4c3)n2)n[nH]1
15,< 1000 nM,Cc1cc(Nc2cc(N3CCCC3)nc(SCc3ccc4c(=O)[nH][nH]c4c3)n2)n[nH]1
16,< 1000 nM,O=c1[nH][nH]c2ccc(-c3nc(Nc4n[nH]c5ccccc45)cc(-c4cnc[nH]4)n3)c(C(F)(F)F)c12
17,< 1000 nM,Cn1cnc(NC2CCCC2CCc2ccc3c(=O)[nH][nH]c3c2)c1 (stereo not drawn)
18,< 1000 nM,Cc1cnc(NCCCSc2ccc3c(=O)[nH][nH]c3c2)s1
19,< 1000 nM,CN1CCN(c2cccc3c(Nc4n[nH]c5c(F)cccc45)nc(-c4ccc5[nH][nH]c(=O)c5c4C(F)(F)F)nc23)CC1
20,< 1000 nM,O=c1[nH][nH]c2ccc(-c3cc4ccccc4c(Nc4n[nH]c5c(F)cc(F)cc45)n3)c(C(F)(F)F)c12
21,< 1000 nM,O=c1[nH][nH]c2cc(OCC3CCCC3Nc3nccnn3)ccc12 (stereo not drawn)
22,< 1000 nM,Cc1cc(Nc2cc(-c3ccccc3)[nH]n2)nc(-c2ccc3[nH][nH]c(=O)c3c2)n1
23,< 1000 nM,O=c1[nH][nH]c2cc(Nc3cccc(Nc4n[nH]c5ccccc45)n3)ccc12

row,Ki,SMILES
1,< 1000 nM,CSc1nc(Nc2ccc3c(=O)[nH][nH]c3c2)cc(Nc2cc(C3CC3)[nH]n2)n1
2,< 1000 nM,Cn1cnc(NC(=O)CCCc2ccc3c(=O)[nH][nH]c3c2)c1
3,< 1000 nM,O=c1[nH][nH]c2cc(C3CC3C3COCC(Nc4nccnn4)C3)ccc12 (stereo not drawn)
4,< 1000 nM,O=c1[nH][nH]c2ccc(-c3nc(Nc4n[nH]c5ccccc45)c4cccnc4n3)c(C(F)(F)F)c12
5,< 1000 nM,O=c1[nH][nH]c2ccc(-c3nc(Nc4n[nH]cc4-c4ccccc4)c4ccccc4n3)c(C(F)(F)F)c12
6,< 1000 nM,O=c1[nH][nH]c2cc(CCC3CCCC3Nc3cc(C4CC4)[nH]n3)ccc12 (stereo not drawn)
7,< 1000 nM,O=c1[nH][nH]c2cc(Nc3nc(Nc4cc(C5CC5)[nH]n4)cc(Oc4ccccc4)n3)ccc12
8,< 1000 nM,O=C(CCOc1ccc2c(=O)[nH][nH]c2c1)Nc1nccnn1
9,< 1000 nM,O=C(CCSc1ccc2c(=O)[nH][nH]c2c1)Nc1ccccn1
10,< 1000 nM,O=c1[nH][nH]c2cc(NCC3CCCC3Nc3cc(C4CC4)[nH]n3)ccc12 (stereo not drawn)
11,< 1000 nM,O=c1[nH][nH]c2ccc(-c3nc4c(c(Nc5n[nH]c6ccc(F)cc56)n3)CCC4)c(C(F)(F)F)c12
12,< 1000 nM,O=c1[nH][nH]c2cc(Nc3nc(Nc4cc(-c5ccco5)[nH]n4)c4ccccc4n3)ccc12
13,< 1000 nM,Cc1cc(Nc2nc(CSc3ccc4[nH][nH]c(=O)c4c3)nc3c2CCCC3)n[nH]1
14,< 1000 nM,O=c1[nH][nH]c2cc(Nc3ncc(-c4cccs4)c(Nc4cc(C5CC5)[nH]n4)n3)ccc12
15,< 1000 nM,O=C(CCCc1ccc2c(=O)[nH][nH]c2c1)Nc1ccccn1
16,< 1000 nM,O=c1[nH][nH]c2cc(CC3COCC(Nc4cc(C5CC5)[nH]n4)C3)ccc12 (stereo not drawn)
17,< 1000 nM,O=c1[nH][nH]c2cc(Sc3cc(Nc4cc(C5CC5)[nH]n4)ccn3)ccc12
18,< 1000 nM,O=c1[nH][nH]c2cc(Nc3nc(Nc4n[nH]c5ccccc45)c4ccccc4n3)ccc12
19,< 1000 nM,CC(=O)Nc1cccc(-c2cc(Nc3cc(C)[nH]n3)nc(Sc3ccc4c(=O)[nH][nH]c4c3)n2)c1
20,< 1000 nM,O=c1[nH][nH]c2ccc(CNc3nc(Nc4cc(C5CC5)[nH]n4)cc(-c4ccccc4)n3)cc12
21,< 1000 nM,O=c1[nH][nH]c2ccc(OCc3cc4ccccc4c(Nc4cc(C5CC5)[nH]n4)n3)cc12
22,< 1000 nM,O=c1[nH][nH]c2cc(C(F)(F)F)c(-c3cc(-c4ccccc4)cc(Nc4n[nH]c5ccccc45)n3)cc12
